# Results reported in US12404265B2, “Substituted pyridine derivatives as SARM1 inhibitors” (Nura Bio, Inc., priority 2020, dated 2025).
# Target: T1, human SARM1(50-724) (Homo sapiens, UniProt Q6SZW1)
# T1 construct: 40 nM human SARM1(50-724)
# T1 sequence (Q6SZW1 50-724): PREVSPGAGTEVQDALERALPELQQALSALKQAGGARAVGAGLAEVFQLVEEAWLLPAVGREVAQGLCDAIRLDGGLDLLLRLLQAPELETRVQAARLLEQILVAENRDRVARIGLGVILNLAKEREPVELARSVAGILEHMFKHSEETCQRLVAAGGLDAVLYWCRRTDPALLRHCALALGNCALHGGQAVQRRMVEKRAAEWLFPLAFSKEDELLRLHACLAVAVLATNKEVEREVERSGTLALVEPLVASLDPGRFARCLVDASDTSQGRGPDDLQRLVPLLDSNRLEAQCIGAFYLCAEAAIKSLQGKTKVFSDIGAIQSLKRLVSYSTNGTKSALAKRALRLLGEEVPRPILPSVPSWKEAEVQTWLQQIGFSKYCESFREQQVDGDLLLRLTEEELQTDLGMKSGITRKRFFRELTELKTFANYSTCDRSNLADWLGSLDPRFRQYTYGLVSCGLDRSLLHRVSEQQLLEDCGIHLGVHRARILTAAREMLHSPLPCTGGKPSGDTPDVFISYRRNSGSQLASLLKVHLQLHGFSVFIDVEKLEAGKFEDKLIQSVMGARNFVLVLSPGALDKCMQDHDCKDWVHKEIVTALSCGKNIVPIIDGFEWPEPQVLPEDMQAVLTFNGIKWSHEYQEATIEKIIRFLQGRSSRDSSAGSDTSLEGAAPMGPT
# Assay: SARM1 NADase biochemical assay (HPLC of NAD and NAM)
# Details: 40 nM human SARM1(50-724), 0.3 mM NMN, 20 μM NAD, 60 minutes room temperature; dose-response from 100 μM, 1:3 dilution
# How it was run: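 Human SARM1(50-724) at 40 nM with 0.3 mM NMN, 20 μM NAD, 1 mM TCEP in 25 mM HEPES pH 7.4, 10 mM KCl, 10 mM MgCl2, 1% DMSO; 60 min at room temperature, formic acid quench. NAD and NAM quantified by reverse-phase HPLC peak area; single point 50 μM or 1:3 series from 100 μM.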
row,SMILES,IC50 [nM]
1,"Cn1c(NC(=O)CCc2ccc(Cl)cc2)cnc1-c1ccncc1 [Example 105, 3-(4-Chlorophenyl)-N-(1-methyl-2-(pyridin-4-yl)-1H-imidazol-5-yl)propanamide]",< 1000
2,"Cc1c(-c2ccncc2)n[nH]c1N(C(=O)CCc1ccc(Cl)cc1)C(=O)CCC(C)C [Example 7, N-(3-(4-Chlorophenyl)propanoyl)-4-methyl-N-(4-methyl-3-(pyridin-4-yl)-1H-pyrazol-5-yl)pentanamide]",1000 to 10000
3,"Cc1c(-c2ccncc2)n[nH]c1N(C(=O)CCc1ccc(Cl)cc1)C(=O)CCC1CCCC1 [Example 8, 3-(4-Chlorophenyl)-N-(3-cyclopentylpropanoyl)-N-(4-methyl-3-(pyridin-4-yl)-1H-pyrazol-5-yl)propanamide]",< 1000
4,"O=C(CCc1ccc(Cl)cc1)Nc1[nH]nc(-c2ccncc2)c1C1CC1 [Example 123, 3-(4-Chlorophenyl)-N-(4-cyclopropyl-3-(pyridin-4-yl)-1H-pyrazol-5-yl)propanamide]",< 1000
5,CC(=O)N(C(=O)CCc1ccc(Cl)cc1)c1[nH]nc(-c2ccncc2)c1C [Example 1],< 1000
6,Cc1nn(-c2ccncc2)cc1NC(=O)CCc1ccc(Cl)cc1 [Example 107],1000 to 10000
7,"CCC(=O)N(C(=O)CCc1ccc(Cl)cc1)c1[nH]nc(-c2ccncc2)c1C [Example 2, 3-(4-Chlorophenyl)-N-(4-methyl-3-(pyridin-4-yl)-1H-pyrazol-5-yl)-N-propionylproanamide]",1000 to 10000
8,"Cc1c(-c2ccncc2)n[nH]c1NC(=S)CCc1ccc(Cl)cc1 [Example 124, 3-(4-Chlorophenyl)-N-[4-methyl-3-(pyridin-4-yl)-1H-pyrazol-5-yl]propanethioamide]",< 1000
9,"O=C(CCc1cc(F)c(Cl)c(F)c1)Nc1cnn(-c2ccncc2)c1Cl [Example 91, N-(5-Chloro-1-(pyridin-4-yl)-1H-pyrazol-4-yl)-3-(4-chloro-3,5-difluorophenyl)propanamide]",< 1000
10,"Cc1c(-c2ccncc2)n[nH]c1NC(=O)NCc1ccc(Cl)nc1 [Example 143, 1-[(6-Chloropyridin-3-yl)methyl]-3-[4-methyl-3-(pyridin-4-yl)-1H-pyrazol-5-yl]urea]",< 1000
11,"O=C(CCc1cc(F)c(F)c(F)c1)Nc1cc(-c2ccncc2)n[nH]1 [Example 102, N-(3-(Pyridin-4-yl)-1H-pyrazol-5-yl)-3-(3,4,5-trifluorophenyl)propanamide]",< 1000
12,"Cc1c(-c2ccncc2)n[nH]c1NC(=O)CCc1ccc(Cl)c(F)c1 [Example 64, 3-(4-Chloro-3-fluorophenyl)-N-(4-methyl-3-(pyridin-4-yl)-1H-pyrazol-5-yl)propanamide]",< 1000
13,"Cc1c(-c2ccncc2)n[nH]c1NC(=O)CCc1ccc(Cl)c(Cl)c1 [Example 31, 3-(3,4-Dichlorophenyl)-N-(4-methyl-3-(pyridin-4-yl)-1H-pyrazol-5-yl)propanamide]",< 1000

# Other lines, results leading:
row,IC50 [nM],SMILES
1,< 1000,"Cc1c(-c2ccncc2)n[nH]c1NC(=O)CCc1ccc2c(c1)OCO2 [Example 20, 3-(Benzo[d][1,3]dioxol-5-yl)-N-(4-methyl-3-(pyridin-4-yl)-1H-pyrazol-5-yl)propanamide]"
2,< 1000,O=C(CCc1cc(F)c(F)c(F)c1)Nc1[nH]nc(-c2ccncc2)c1CO [Example 119]
3,1000 to 10000,"Cc1c(-c2ccncc2)n[nH]c1N(C(=O)CCc1ccc(Cl)cc1)C(=O)C(C)C [Example 12, 3-(4-Chlorophenyl)-N-isobutyryl-N-(4-methyl-3-(pyridin-4-yl)-1H-pyrazol-5-yl)propanamide]"
4,< 1000,"Cc1c(NC(=O)CSc2ccc(Cl)cc2)cnn1-c1ccncc1 [Example 81, 2-((4-Chlorophenyl)thio)-N-(5-methyl-1-(pyridin-4-yl)-1H-pyrazol-4-yl)acetamide]"
5,< 1000,"Cc1c(-c2ccncc2)n[nH]c1NC(=O)COc1ccc(Cl)cc1 [Example 62, 2-(4-Chlorophenoxy)-N-(4-methyl-3-(pyridin-4-yl)-1H-pyrazol-5-yl)acetamide]"
6,1000 to 10000,"Cc1c(NC(=S)CCc2ccc(Cl)cc2)cnn1-c1ccncc1 [Example 137, 3-(4-Chlorophenyl)-N-(5-methyl-1-(pyridin-4-yl)-1H-pyrazol-4-yl)propanethioamide]"
7,< 1000,Cc1c(-c2ccncc2)n[nH]c1NC(=O)CCc1cc(Cl)cs1 [Example 73]
8,< 1000,"O=C(CCc1ccc(Cl)cc1)Nc1[nH]nc(-c2ccncc2)c1Cl [Example 96, N-(4-Chloro-3-(pyridin-4-yl)-1H-pyrazol-5-yl)-3-(4-chlorophenyl)propanamide]"
9,1000 to 10000,"Cc1c(-c2ccncc2)n[nH]c1NC(=O)CCc1ccccc1Cl [Example 23, 3-(2-Chlorophenyl)-N-(4-methyl-3-(pyridin-4-yl)-1H-pyrazol-5-yl)propanamide]"
